Drawing on patent publication US20120020915A1, “Compounds and Methods for Treating Cancer and Diseases of the Central Nervous System” (QUEENS UNIVERSITY AT KINGSTON, priority 2007, published 2012), this text covers IC50 for 35 molecules.

Where a name gives a salt, the structure may show the parent alone. Read-outs that look alike come from different tables or passages of the source.

The target of one assay is T1, HO-1 (rat spleen) (Rattus norvegicus, UniProt P06762).
T1 construct: Spleen microsomes were used as a source of HO-1; from tissue; host or cells: spleen microsomal fraction of adult male Sprague-Dawley rats
T1 sequence (P06762 1-289): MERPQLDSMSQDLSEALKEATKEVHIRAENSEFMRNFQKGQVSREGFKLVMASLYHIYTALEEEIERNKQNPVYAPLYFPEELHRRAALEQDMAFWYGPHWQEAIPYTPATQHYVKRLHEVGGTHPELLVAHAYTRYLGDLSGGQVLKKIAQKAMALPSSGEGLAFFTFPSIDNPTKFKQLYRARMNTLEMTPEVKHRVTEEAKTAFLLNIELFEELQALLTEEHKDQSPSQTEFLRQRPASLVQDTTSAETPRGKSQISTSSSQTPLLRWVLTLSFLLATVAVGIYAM
Kind of assay: HO enzymatic activity, rat spleen microsomal fraction (CO formation from methemalbumin). Format: biochemical. The note with it: CO formation from methemalbumin, mean ± SD of replicate experiments. The method, then: (§1) Incubations for HO activity analysis were done under conditions for which the rate of CO formation (pmol CO×min^−1×mg protein^−1) was linear with respect to time and microsomal protein concentration. Briefly, reaction mixtures (150 μL) consisting of 100 mM phosphate buffer (pH 7.4), 50 μM methemalbumin, and 1 mg/mL protein were pre-incubated with the inhibitors at final concentrations ranging from 0.1-100 μM for 10 minutes at 37° C. Reactions were initiated by adding NADPH at a final concentration of 1 mM and incubations were performed for an additional 15 minutes at 37° C.
(§2) Incubations for HO activity analysis were done under conditions for which the rate of CO formation (pmol CO/mg protein/minute) was linear with respect to time and microsomal protein concentration. Briefly, reaction mixtures (150 μL) consisting of 100 mM phosphate buffer (pH 7.4), 50 μM methemalbumin and 1 mg/mL protein were pre-incubated with the vehicle (ethanol or water in which the inhibitors were dissolved), or inhibitors at final concentrations ranging from 0.1-1000 μM for 10 minutes at 37° C. Reactions were initiated by adding β-NADPH at a final concentration of 1 mM and incubations were carried out for an additional 15 minutes at 37° C. Reactions were stopped by instantly freezing the reaction mixture on pulverized dry ice and CO formation was measured by gas chromatography using a TA 3000R Process Gas Analyzer (Trace Analytical/Ametek, Newark, Del., USA).
(§3) The values on the abscissa represent the decimal logarithm of the inhibitor's concentration (in μM), whereas the values of the activity on the ordinate are expressed as a percentage of the control experiments without inhibitor.
(§4) The IC50 values for the replicate experiments were employed to generate the reported standard deviation value.

For the next assay, the target named is T2, HO-2 (rat brain) (Rattus norvegicus, UniProt P23711).
T2 construct: brain microsomes were used as a source of HO-2; from tissue; host or cells: brain microsomal fraction of adult male Sprague-Dawley rats
T2 sequence (P23711 1-315): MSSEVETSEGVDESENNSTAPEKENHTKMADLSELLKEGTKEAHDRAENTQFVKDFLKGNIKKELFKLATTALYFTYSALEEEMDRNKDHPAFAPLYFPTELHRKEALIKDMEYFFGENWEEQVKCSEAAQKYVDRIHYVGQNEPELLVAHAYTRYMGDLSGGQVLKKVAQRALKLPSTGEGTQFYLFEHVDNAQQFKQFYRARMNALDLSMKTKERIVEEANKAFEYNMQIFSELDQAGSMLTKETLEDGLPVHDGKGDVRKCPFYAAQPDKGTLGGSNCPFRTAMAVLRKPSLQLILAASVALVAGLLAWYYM
Nature of the assay: HO enzymatic activity, rat brain microsomal fraction (CO formation from methemalbumin). The note with it: CO formation from methemalbumin, mean ± SD of replicate experiments. The assay is classed as biochemical. The protocol:
as §1, §2, §3, §4

The mark [1] stands for this setting: read-out: IC50 HO-1 (rat spleen/μM).
Setting [2] is: read-out: IC50 HO-2 (rat brain)/μM).

Take `Cc1nccn1CC(=O)CCc1ccc(Br)cc1` [QC-61, 4-(4-bromophenyl)-1-[(2-methyl)-1H-imidazol-1-yl]butan-2-one hydrochloride]: the IC50 against HO-1 (rat spleen) (IC50 HO-1 (rat spleen/μM)) and against HO-2 (rat brain) (IC50 HO-2 (rat brain)/μM)) was > 100 µM throughout.

In the case of `O=C(CCc1ccc(Br)cc1)Cn1cnc2ccccc21` [QC-62, 4-(4-bromophenyl)-1-(1H-benzimidazol-1-yl)butan-2-one hydrochloride], the IC50 on HO-1 (rat spleen) (IC50 HO-1 (rat spleen/μM)) and on HO-2 (rat brain) (IC50 HO-2 (rat brain)/μM)) was > 100 µM in each case.

With `O=C(Cn1ccnc1)NCc1ccccc1` [QC-63, N-benzyl-2-(1H-imidazol-1-yl)-acetamide hydrochloride], the IC50 on HO-1 (rat spleen) (setting [1]) was 12 ± 5 µM; at HO-2 (rat brain) (IC50 HO-2 (rat brain)/μM)), > 100 µM.

As for `O=C(O)Cn1ccnc1` [QC-66, Imidazol-1-yl-acetic acid], the IC50 at HO-1 (rat spleen) (setting [1]) and on HO-2 (rat brain) (setting [2]) was > 100 µM throughout.

`NCCc1c[nH]cn1` [QC-67, Histamine dihydrochloride, reference compound]: the IC50 on HO-1 (rat spleen) (setting [1]) and on HO-2 (rat brain) (setting [2]) was > 100 µM in each case.

`N[C@@H](Cc1c[nH]cn1)C(=O)O` [QC-68, L-histidine hydrochloride monohydrate, reference compound]: the IC50 at HO-1 (rat spleen) (setting [1]) and on HO-2 (rat brain) (setting [2]) was > 100 µM in each case.

On to `CSCC[C@@H](N)C(=O)O` [QC-69, D-methionine, reference compound], for which the IC50 on HO-1 (rat spleen) (setting [1]) and at HO-2 (rat brain) (setting [2]) was > 100 µM each time.

On to `Clc1ccc(CCC2(Cn3ccnc3)OCCCO2)cc1` [QC-70, 2-[2-(4-chlorophenyl)ethyl]-2-[(1H-imidazol-1-yl)methyl]-1,3-dioxane hydrochloride], for which the IC50 on HO-1 (rat spleen) (IC50 HO-1 (rat spleen/μM)) is 20 ± 4 µM; at HO-2 (rat brain) (IC50 HO-2 (rat brain)/μM)), > 100 µM.

As to `Clc1ccc(CCC2(Cn3ccnc3)O[C@H]3CCCC[C@H]3O2)cc1` (stereo partly shown) [QC-71, 1-{2-[2-(4-Chlorophenyl)-ethyl]-hexahydrobenzo[1,3]dioxol-2-ylmethyl}-1H-imidazole], the IC50 was 69 ± 7 µM against HO-1 (rat spleen) (IC50 HO-1 (rat spleen/μM)) and > 100 µM against HO-2 (rat brain) (IC50 HO-2 (rat brain)/μM)).

On to `COc1ccc(CCC(=O)Cn2ccnc2)cc1` [QC-72, 1-(1H-imidazol-1-yl)-4-(4-methoxyphenyl)-2-butanone hydrochloride], for which the IC50 against HO-1 (rat spleen) (IC50 HO-1 (rat spleen/μM)) was 2.2 ± 0.9 µM; on HO-2 (rat brain) (IC50 HO-2 (rat brain)/μM)), 29 ± 19 µM.

Turning to `O=C(CCn1ccnc1)c1ccccc1O` [QC-75, 1-(2-hydroxyphenyl)-3-imidazol-1-yl-propan-1-one], the IC50 on HO-1 (rat spleen) (IC50 HO-1 (rat spleen/μM)) was 25 ± 12 µM; on HO-2 (rat brain) (IC50 HO-2 (rat brain)/μM)), > 100 µM.

Consider `O=C(n1ccnc1)C(F)(F)F` [QC-77, N-trifluoroacetylimidazole], for which the IC50 on HO-1 (rat spleen) (setting [1]) and at HO-2 (rat brain) (setting [2]) was > 100 µM throughout.

Take `CN(C)CCC(=O)c1ccc(Cl)cc1` [QC-84, 1-(4-chlorophenyl)-3-dimethylamino-propan-1-one]: the IC50 against HO-1 (rat spleen) (IC50 HO-1 (rat spleen/μM)) and at HO-2 (rat brain) (IC50 HO-2 (rat brain)/μM)) was > 100 µM in each case.

`O=C(CCn1ccnc1)c1ccc(Cl)cc1` [QC-85, 1-(4-chlorophenyl)-3-imidazol-1-yl-propan-1-one hydrochloride]: the values for the IC50 against HO-1 (rat spleen) (IC50 HO-1 (rat spleen/μM)) and against HO-2 (rat brain) (IC50 HO-2 (rat brain)/μM)) were 32 ± 3 µM and > 100 µM, respectively.

On to `c1cn(CCCCn2ccnc2)cn1` [QC-88, 1,4-bis-(1H-imidazol-1-yl)butane dihydrochloride], for which the IC50 at HO-1 (rat spleen) (setting [1]) and on HO-2 (rat brain) (setting [2]) was > 100 µM throughout.

`c1cn(CCCCCCn2ccnc2)cn1` [QC-89, 1,6-bis-(1H-imidazol-1-yl)hexane dihydrochloride]: the IC50 at HO-1 (rat spleen) (setting [1]) and at HO-2 (rat brain) (setting [2]) was > 100 µM each time.

Turning to `c1ccc(CCC2(Cn3cccn3)OCCO2)cc1` [QC-95, 2-phenylethyl-2-[(1H-pyrazole-1-yl)methyl]-1,3-dioxolane hydrochloride], the IC50 at HO-1 (rat spleen) (setting [1]) and at HO-2 (rat brain) (setting [2]) was > 100 µM throughout.

As for `O=C(CCc1ccccc1)C[n+]1ccncc1` [QC-97, 1-(4-phenyl-2-oxo-butyl)-pyrazin-1-ium bromide], the IC50 on HO-1 (rat spleen) (setting [1]) is 163 ± 10 µM; at HO-2 (rat brain) (setting [2]) it was > 100 µM.

Take `O=C(c1ccc(-n2ccnc2)cc1)C1CC1` [QC-98, Cyclopropyl-(4-imidazol-1-yl-phenyl)methanone hydrochloride]: the IC50 on HO-1 (rat spleen) (setting [1]) and on HO-2 (rat brain) (setting [2]) was > 100 µM in each case.

On to `CCCC(=O)n1ccnc1` [QC-100, N-butyrylimidazole], for which the IC50 at HO-1 (rat spleen) (setting [1]) and at HO-2 (rat brain) (setting [2]) was > 100 µM throughout.

For the molecule `O=C(NCCCn1ccnc1)Nc1ccccc1` [QC-107, 1-(3-Imidazol-1-yl-propyl)-3-phenyl-urea], the IC50 on HO-1 (rat spleen) (setting [1]) and at HO-2 (rat brain) (setting [2]) was > 100 µM each time.

`O=C(NCCCn1ccnc1)c1ccccc1` [QC-109, N-(3-Imidazol-1-yl-propyl)-benzamide]: the IC50 at HO-1 (rat spleen) (setting [1]) and at HO-2 (rat brain) (setting [2]) was > 100 µM each time.

As to `CCOC(=O)c1nccn1CC(=O)CCc1ccccc1` [QC-110, 1-(2-Oxo-4-phenyl-butyl)-1H-imidazole-2-carboxylic acid ethyl ester hydrochloride], the IC50 against HO-1 (rat spleen) (IC50 HO-1 (rat spleen/μM)) and at HO-2 (rat brain) (IC50 HO-2 (rat brain)/μM)) was > 100 µM throughout.

For `CSc1nccn1CC(=O)CCc1ccccc1` [QC-113, 1-(2-Methylsulfanyl-imidazol-1-yl)-4-phenyl-butan-2-one], the IC50 at HO-1 (rat spleen) (setting [1]) and at HO-2 (rat brain) (setting [2]) was > 100 µM each time.

As for `O=C(CCc1ccccc1)Cn1ncnn1` [QC-117, 4-Phenyl-1-tetrazol-2-yl-butan-2-one hydrochloride], the IC50 on HO-1 (rat spleen) (IC50 HO-1 (rat spleen/μM)) stood at 9.6 ± 0.2 µM; at HO-2 (rat brain) (setting [2]) it was 37 ± 25 µM.

For the molecule `O=C(CCc1ccccc1)Cn1cnnn1` [QC-118, 4-Phenyl-1-tetrazol-1-yl-butan-2-one hydrochloride], the IC50 was determined as 2.6 ± 0.9 µM against HO-1 (rat spleen) (IC50 HO-1 (rat spleen/μM)) and 20 ± 10 µM on HO-2 (rat brain) (setting [2]).

In the case of `CCCCn1ccnc1` [QC-122, 1-Butyl-1H-imidazole], the IC50 on HO-1 (rat spleen) (setting [1]) and at HO-2 (rat brain) (setting [2]) was > 100 µM throughout.

With `COC(=O)c1ncn(CC(=O)CCc2ccccc2)c1C(=O)OC` [QC-123, 1-(2-Oxo-4-phenyl-butyl)-1H-imidazole-4,5-dicarboxylic acid dimethyl ester hydrochloride], the IC50 at HO-1 (rat spleen) (IC50 HO-1 (rat spleen/μM)) and at HO-2 (rat brain) (IC50 HO-2 (rat brain)/μM)) was > 100 µM each time.

In the case of `O=C(CCc1ccccc1)Cn1cnc(-c2ccccc2)c1` [QC-124, 4-Phenyl-1-(4-phenyl-imidazol-1-yl)-butan-2-one hydrochloride], the values for the IC50 on HO-1 (rat spleen) (setting [1]) and on HO-2 (rat brain) (setting [2]) were 9 ± 2 µM and 145 ± 54 µM, respectively.

For the molecule `CS(=O)(=O)c1nccn1CC(=O)CCc1ccccc1` [QC-125, 1-(2-Methanesulfonyl-imidazol-1-yl)-4-phenyl-butan-2-one], the IC50 at HO-1 (rat spleen) (setting [1]) and on HO-2 (rat brain) (setting [2]) was > 100 µM each time.

For `O=C(CCc1ccccc1)Cn1cnc([N+](=O)[O-])c1` [QC-127, 1-(4-Nitro-imidazol-1-yl)-4-phenyl-butan-2-one], the IC50 at HO-1 (rat spleen) (setting [1]) and at HO-2 (rat brain) (setting [2]) was > 100 µM throughout.

As for `O=C(CCc1ccccc1)Cn1cnc2ccccc21` [QC-128, 1-Benzoimidazol-1-yl-4-phenyl-butan-2-one], the IC50 on HO-1 (rat spleen) (setting [1]) and on HO-2 (rat brain) (setting [2]) was > 100 µM in each case.

With `O=C(CCc1ccccc1)Cn1nnc2ccccc21` [QC-131, 1-Benzotriazol-1-yl-4-phenyl-butan-2-one], the IC50 at HO-1 (rat spleen) (setting [1]) and on HO-2 (rat brain) (setting [2]) was > 100 µM throughout.

Take `COC(=O)c1cn(CC(=O)CCc2ccccc2)cn1` [QC-133, 1-(2-Oxo-4-phenyl-butyl)-1H-imidazole-4-carboxylic acid methyl ester]: the IC50 on HO-1 (rat spleen) (setting [1]) and on HO-2 (rat brain) (setting [2]) was > 100 µM throughout.

Take `COC(=O)c1cncn1CC(=O)CCc1ccccc1` [QC-134, 3-(2-Oxo-4-phenyl-butyl)-3H-imidazole-4-carboxylic acid methyl ester]: the IC50 at HO-1 (rat spleen) (setting [1]) was 55 ± 2 µM; on HO-2 (rat brain) (setting [2]), > 100 µM.
